Measurements reported in patent publication US6455556B2, “Crystal modifications of 1-(2,6-difluorobenzyl)-1H-1,2,3-triazole-4-carboxamide” (Novartis AG, priority 1997, dated 2002).

Experiment: dissolution rate in water and gastric fluid
Assay type: physicochemical
Settings: compared with modification A or A′

NC(=O)c1cn(Cc2c(F)cccc2F)nn1 [modification B, 1-(2,6-difluorobenzyl)-1H-1,2,3-triazole-4-carboxamide]
dissolution rate in gastric fluid (gastric fluid): substantially faster
dissolution rate in water (water): substantially faster
